Assay results from PubChem BioAssay AID248 (DTP/NCI, 2004).
“And” between values parts separate entries of the source, which are not always exact repeats. Equal values may be shown once. Inconclusive results and toxic doses are left out. No stated cut-off is given here; in the data, active means T/C of 150% or more; inactive means T/C below 125%.

System: L1210 leukemia ip in BDF1 mice, survival T/C
Experiment: NCI In Vivo Anticancer Drug Screen. Data for tumor model L1210 Leukemia (intraperitoneal) in B6D2F1 (BDF1) mice
Settings: endpoint: mean survival time, higher = longer survival
Outline: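 Tumor was transplanted into mice, which were then dosed with test compound or vehicle alone. Survival was recorded for each group, and the treated figure was expressed relative to the control figure.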

[1] = dose: 100.0 mg/kg/injection, schedule: Q04DX002 (ip), vehicle: saline with Tween-80
[2] = dose: 100.0 mg/kg/injection, schedule: Q04DX003 (ip), vehicle: saline with Tween-80
[3] = dose: 200.0 mg/kg/injection, schedule: Q04DX003 (ip), vehicle: saline with Tween-80
[4] = dose: 400.0 mg/kg/injection, schedule: Q04DX003 (ip), vehicle: saline with Tween-80
[5] = dose: 100.0 mg/kg/injection, schedule: Q01DX009 (ip), vehicle: Klucel (hydroxypropylcellulose) (HPC)
[6] = dose: 100.0 mg/kg/injection, schedule: Q04DX003 (ip), vehicle: Klucel (hydroxypropylcellulose) (HPC)
[7] = dose: 200.0 mg/kg/injection, schedule: Q01DX009 (ip), vehicle: Klucel (hydroxypropylcellulose) (HPC)
[8] = dose: 200.0 mg/kg/injection, schedule: Q04DX003 (ip), vehicle: Klucel (hydroxypropylcellulose) (HPC)
[9] = dose: 400.0 mg/kg/injection, schedule: Q01DX009 (ip), vehicle: Klucel (hydroxypropylcellulose) (HPC)
[10] = dose: 400.0 mg/kg/injection, schedule: Q04DX003 (ip), vehicle: Klucel (hydroxypropylcellulose) (HPC)
[11] = dose: 100.0 mg/kg/injection, schedule: Q01DX001 (ip), vehicle: saline
[12] = dose: 200.0 mg/kg/injection, schedule: Q01DX001 (ip), vehicle: saline
[13] = dose: 100.0 mg/kg/injection, schedule: Q01DX009 (ip), vehicle: saline
[14] = dose: 100.0 mg/kg/injection, schedule: Q04DX003 (ip), vehicle: saline
[15] = dose: 100.0 mg/kg/injection, schedule: Q01DX001 (ip), vehicle: Klucel (hydroxypropylcellulose) (HPC)
[16] = dose: 200.0 mg/kg/injection, schedule: Q01DX001 (ip), vehicle: Klucel (hydroxypropylcellulose) (HPC)
[17] = dose: 50.0 mg/kg/injection, schedule: Q01DX009 (ip), vehicle: Klucel (hydroxypropylcellulose) (HPC)
[18] = dose: 400.0 mg/kg/injection, schedule: Q01DX001 (ip), vehicle: saline
[19] = dose: 50.0 mg/kg/injection, schedule: Q01DX001 (ip), vehicle: saline

Measured: T/C

C=CCc1ccc(OC(=O)Nc2ccc(SC)cc2)c(OC)c1
inactive: dose: 50.0 mg/kg/injection, schedule: Q01DX009 (ip), vehicle: saline with Tween-80 95 % of control and 87 % of control | dose: 100.0 mg/kg/injection, schedule: Q01DX001 (ip), vehicle: saline with Tween-80 101 % of control | [1] 90 % of control and 91 % of control | [2] 94 % of control | dose: 200.0 mg/kg/injection, schedule: Q01DX001 (ip), vehicle: saline with Tween-80 98 % of control | dose: 200.0 mg/kg/injection, schedule: Q04DX002 (ip), vehicle: saline with Tween-80 93 % of control and 100 % of control | [3] 91 % of control | dose: 400.0 mg/kg/injection, schedule: Q01DX001 (ip), vehicle: saline with Tween-80 97 % of control | dose: 400.0 mg/kg/injection, schedule: Q01DX009 (ip), vehicle: saline with Tween-80 99 % of control and 89 % of control | dose: 400.0 mg/kg/injection, schedule: Q04DX002 (ip), vehicle: saline with Tween-80 94 % of control and 88 % of control | [4] 96 % of control

CCOC(=O)/C=C(\C)OC
inactive: [5] 102 % of control | [6] 96 % of control | [7] 97 % of control | [8] 105 % of control | [9] 94 % of control | [10] 100 % of control

CNc1ccccc1C(N)=O
inactive: [5] 106 % of control | [6] 105 % of control | [7] 98 % of control | [8] 102 % of control | [9] 101 % of control | [10] 96 % of control

O=c1ccc2c([N+](=O)[O-])cc([N+](=O)[O-])c(O)c2[nH]1
inactive: [11] 101 % of control | [12] 101 % of control

Cc1nc2cc(Cc3ccccc3)ccc2o1
inactive: dose: 100.0 mg/kg/injection, schedule: Q04DX003 (ip), vehicle: saline sonified 107 % of control | dose: 200.0 mg/kg/injection, schedule: Q04DX003 (ip), vehicle: saline sonified 105 % of control | dose: 400.0 mg/kg/injection, schedule: Q04DX003 (ip), vehicle: saline sonified 107 % of control

CC1=NN(c2ccc(S(=O)(=O)O)cc2)C(=O)C1
inactive: [6] 89 % of control | [8] 98 % of control | [10] 91 % of control

Cc1[nH]c2ccc(N=CN(C)C)cc2c1C
inactive: [1] 94 % of control

CCC(C)C(CCCN1CCOCC1)(CNC(=O)CN(CC)CC)c1cccc2ccccc12 (configuration not stated)
inactive: dose: 25.0 mg/kg/injection, schedule: Q01DX009 (ip), vehicle: saline 94 % of control | dose: 50.0 mg/kg/injection, schedule: Q01DX009 (ip), vehicle: saline 97 % of control | [13] 91 % of control | [14] 102 % of control

O=Cc1cccc(Oc2cccc(C=O)c2)c1
inactive: [15] 97 % of control | [16] 95 % of control | dose: 400.0 mg/kg/injection, schedule: Q01DX001 (ip), vehicle: Klucel (hydroxypropylcellulose) (HPC) 92 % of control

CCOC(=O)c1ncc(Cl)cc1N
inactive: [15] 106 % of control | [16] 108 % of control

CC(=O)Oc1ccc(Cl)cc1C=O
inactive: [11] 105 % of control | [12] 103 % of control

Cc1cc2c(cc1C)NC(C)CC(=O)N2 (configuration not stated)
inactive: dose: 25.0 mg/kg/injection, schedule: Q01DX009 (ip), vehicle: Klucel (hydroxypropylcellulose) (HPC) 109 % of control | [17] 98 % of control | [5] 104 % of control | [13] 111 % of control | [14] 96 % of control | dose: 133.0 mg/kg/injection, schedule: Q01DX009 (ip), vehicle: Klucel (hydroxypropylcellulose) (HPC) 99 % of control | [7] 94 % of control and 124 % of control | dose: 200.0 mg/kg/injection, schedule: Q04DX003 (ip), vehicle: saline 108 % of control | dose: 400.0 mg/kg/injection, schedule: Q04DX003 (ip), vehicle: saline 105 % of control

O=C(NCCCl)Nc1ccc2c(c1)CCC2
inactive: [6] 94 % of control and 107 % of control | [8] 103 % of control and 90 % of control | [10] 92 % of control

O=C(OCc1ccccc1)c1cc(I)c(OCc2ccccc2)c(I)c1
inactive: [11] 98 % of control | [12] 98 % of control | [18] 98 % of control

O=C/C=C/c1cc(Cl)ccc1O
inactive: [11] 108 % of control | [12] 103 % of control

CCc1cccc(CC)c1N=Cc1ccccc1O
inactive: dose: 100.0 mg/kg/injection, schedule: Q01DX009 (ip), vehicle: carboxymethylcellulose (CMC) 98 % of control and 102 % of control | dose: 100.0 mg/kg/injection, schedule: Q04DX002 (ip), vehicle: carboxymethylcellulose (CMC) 93 % of control and 101 % of control | dose: 100.0 mg/kg/injection, schedule: Q04DX003 (ip), vehicle: carboxymethylcellulose (CMC) 98 % of control | dose: 200.0 mg/kg/injection, schedule: Q01DX009 (ip), vehicle: carboxymethylcellulose (CMC) 93 % of control and 98 % of control | dose: 200.0 mg/kg/injection, schedule: Q04DX002 (ip), vehicle: carboxymethylcellulose (CMC) 96 % of control and 102 % of control | dose: 200.0 mg/kg/injection, schedule: Q04DX003 (ip), vehicle: carboxymethylcellulose (CMC) 102 % of control | dose: 400.0 mg/kg/injection, schedule: Q01DX009 (ip), vehicle: carboxymethylcellulose (CMC) 95 % of control | dose: 400.0 mg/kg/injection, schedule: Q04DX002 (ip), vehicle: carboxymethylcellulose (CMC) 93 % of control and 96 % of control | dose: 400.0 mg/kg/injection, schedule: Q04DX003 (ip), vehicle: carboxymethylcellulose (CMC) 104 % of control

CCCCCCCCC(CCCCCCCC)CC1CC2CC1C1CCCC21 (configuration not stated)
inactive: dose: 75.0 mg/kg/injection, schedule: Q01DX001 (ip), vehicle: saline with Tween-80 92 % of control | dose: 150.0 mg/kg/injection, schedule: Q01DX001 (ip), vehicle: saline with Tween-80 98 % of control | dose: 300.0 mg/kg/injection, schedule: Q01DX001 (ip), vehicle: saline with Tween-80 95 % of control

CC(=O)NC(CC(=O)O)C(=O)O (configuration not stated)
inactive: [17] 97 % of control | dose: 50.0 mg/kg/injection, schedule: Q04DX002 (ip), vehicle: saline 107 % of control | [5] 105 % of control | [13] 107 % of control | dose: 100.0 mg/kg/injection, schedule: Q04DX002 (ip), vehicle: saline 107 % of control | [6] 90 % of control | [7] 101 % of control | dose: 200.0 mg/kg/injection, schedule: Q01DX009 (ip), vehicle: saline 113 % of control | dose: 200.0 mg/kg/injection, schedule: Q04DX002 (ip), vehicle: saline 98 % of control | [8] 87 % of control | dose: 400.0 mg/kg/injection, schedule: Q01DX009 (ip), vehicle: saline 102 % of control | [10] 97 % of control

Cc1ccc(C(=O)C=C(C(F)(F)F)C(F)(F)F)cc1
inactive: dose: 6.25 mg/kg/injection, schedule: Q04DX003 (ip), vehicle: saline 94 % of control | dose: 12.5 mg/kg/injection, schedule: Q04DX003 (ip), vehicle: saline 96 % of control | dose: 25.0 mg/kg/injection, schedule: Q04DX003 (ip), vehicle: saline 103 % of control

Nc1ncnc2c1ncn2CCC(O)c1ccccc1 (configuration not stated)
inactive: [19] 95 % of control | [11] 93 % of control | [12] 95 % of control | [18] 93 % of control

O=C(Nc1ccccc1O)c1ccccc1Cl
inactive: [5] 96 % of control | [7] 98 % of control | [9] 91 % of control

CCn1c(CC(O)(C(F)(F)F)C(F)(F)F)nc2ccccc21
inactive: [2] 101 % of control | [3] 98 % of control | [4] 101 % of control

O=c1cc(Nc2ccccc2Cl)[nH]c(=O)[nH]1
inactive: [2] 104 % of control | [3] 98 % of control | [4] 95 % of control

C(=N\N=c1\[nH][nH]/c(=N/N=C/c2ccc(-c3ccccc3)cc2)c2ccccc12)/c1ccc(-c2ccccc2)cc1
inactive: [19] 110 % of control | [11] 98 % of control | [12] 95 % of control | [18] 98 % of control

O=C1CCCC2C1CCC1C3CCC(O)CC3CCC21 (configuration not stated)
inactive: dose: 100.0 mg/kg/injection, schedule: Q01DX001 (sc), vehicle: steriod suspending solution 91 % of control | dose: 200.0 mg/kg/injection, schedule: Q01DX001 (sc), vehicle: steriod suspending solution 93 % of control | dose: 400.0 mg/kg/injection, schedule: Q01DX001 (sc), vehicle: steriod suspending solution 95 % of control
